{"source": "patent US12558342B2", "about": "“2-[2-({12,12-dimethyl-4-oxo-6-phenyl-3,11-dioxatricyclo[8.4.0.0,2,7]tetradeca-1,5,7,9-tetraen-8-yl}oxy)acetamido]benzamide and derivatives as inhibitor of clock:bmal1 interaction for the treatment of circadian rhythm diseases and disorders” (KOC UNIVERSITESI, priority 2019, dated 2026)", "tested_on": "wild type MDA MB231 cells", "assay": "Bmal1::dluc rhythm in wild type MDA MB231 cells", "format": "cell-based", "method": "We used Bmal1::dluc U2-OS and Per1::dluc NIH 3T3, and continuously monitored the bioluminescence to record circadian rhythm. This experiment was performed in 96-well plates (triplicates) and 35-mm dishes (duplicates) in the secondary screen and detailed characterization steps respectively. Briefly, cells were seeded to reach confluency. A day after, the medium was replaced with DMEM containing 0.1 μM Dexamethasone to synchronize cells. […] The 96-well plates were covered and bioluminescence was monitored by Synergy H1 Hybrid Multi-Mode Reader every 32 minutes. […] Bioluminescence was recorded every 10 minutes for 4-6 days. […] The first day's data was excluded from the analysis due to transient perturbations of luminescence after the medium change.\nHEK 293T cells at 75-85% confluency were transfected with […] of pLV6-Bmal-luc plasmid, 9 ng of pCMV-AR8.2dvpr packaging vector and 1 ng of pCMV-VSVG envelope vector for 16 h. […] At 72-hour post-transduction, the circadian rhythms of cells monitored using Lumicycle.\nWe used Bmal1::dluc U2-OS and Per1::dluc NIH 3T3, and continuously monitored the bioluminescence to record circadian rhythm. […] The 96-well plates were covered and bioluminescence was monitored by Synergy H1 Hybrid Multi-Mode Reader every 32 minutes. […] Bioluminescence was recorded every 10 minutes for 4-6 days. […]"}
{"smiles": "CC1(C)CCc2c(cc(OCC(=O)Nc3ccccc3C(N)=O)c3c(-c4ccccc4)cc(=O)oc23)O1", "note": "[CLK8, 2-[2-({12,12-dimethyl-4-oxo-6-phenyl-3,11-dioxatricyclo [8.4.0.0,2,7]tetradeca-1,5,7,9-tetraen-8-yl}oxy)acetamido] benzamide]", "values": [{"measurement": "amplitude of circadian rhythm", "result": "enhance amplitude"}]}
